According to US20100159030A1, “METHODS FOR DETECTING AND MODULATING THE SENSITIVITY OF TUMOR CELLS TO ANTI-MITOTIC AGENTS AND FOR MODULATING TURMORGENICITY” (NewSouth Innovations Pty Limited, priority 2007, published 2010):
Counter-ions that a name gives are not always drawn. Like-named read-outs stand apart in the source and are kept apart here.

Legend:
[1] = test system: NSCLC H460 cells; assay: Drug-treated clonogenic assay (surviving fraction, ID50) on siRNA/shRNA-transfected cells; assay type: cell-based, Human; details: for change in drug sensitivity (clonogenic survival): H460; for IC50: Homo sapiens; for RS (relative sensitivity): Table 2
Description: (§1) Cells were transfected for 24 h and approximately 600 cells (for Calu-6) or 150 cells (for H460) were seeded into each well of a 6-well plate and allowed to attach for 4-6 h. The cell lines used in this study were not subject to prior drug selection, and are likely to represent intrinsic drug resistance observed in lung carcinoma.
(§2) Cells were then treated with increasing concentrations of various anti-mitotic drugs. Following a 3-day incubation at 37° C., the drug-containing medium was removed and replaced with fresh complete medium. Medium was changed at 3-4 day intervals for 7 to 10 days until visible colonies formed. […] Surviving colonies were simultaneously fixed and stained with 0.5% crystal violet in methanol, rinsed with water to remove excess stain and air-dried overnight.
(§3) The colonies in each well were manually counted, and the results were presented as surviving fraction according to the formula: surviving fraction was calculated as follows: colony number/(number of cells seeded×plating efficiency), where plating efficiency is equivalent to the colony number divided by the number of cells seeded in the drug-free medium. Dose-response curves were plotted for each drug-cell line combination and inhibitory dose (ID50) values were extrapolated from this curve using GraphPad Prism program (GraphPad Software, version 4, San Diego, Calif.). ID50 was defined as the concentration of the drug required to reduce the number of colonies in drug-treated wells to 50% of that of the relevant untreated control wells. The ID50 values were the means of at least four independent experiments.
(§4) To quantitate any change in drug sensitivity, drug treated clonogenic assays were performed. Twenty-four hours after siRNA transfection, cells were harvested and plated into 6-well plates for 6 h, prior to the addition of various drugs as indicated in the figure legends. After 72 h incubation, the drug-containing media was removed and replaced with complete growth media. Medium was changed every 3 days for 7 to 10 days until visible colonies formed. Colonies were simultaneously fixed and stained with 0.5% crystal violet in methanol, and manually counted. Individual stained colonies in each well were counted and the surviving fraction was calculated as follows: colony number/(number of cells seeded×plating efficiency), where plating efficiency equals the colony number divided by the number of cells seeded in drug-free media.

[2] = test system: CCRF-CEM Leukaemia cells; assay type: cell-based; details: for cross-resistance: lowest resistant subline CEM/2ME2-3.6R only; for cross-resistance of the 2ME2-resistant cells: 2ME2-resistant sublines
From the text: The tubulin-binding agent 2-methoxyestradiol (2ME2) binds to β-tubulin near the colchicine-binding site, inhibits microtubule polymerization, and induces mitotic arrest. CCRF-CEM Leukaemia cells that display increasing resistance to 2ME2 were selected, and four of the highly 2ME2 resistant leukaemia sublines were chosen for detailed analysis.

[3] = test system: Calu-6 cells; assay: Immunofluorescent staining of microtubules (α-tubulin) after drug treatment; assay type: cell-based, Human; details: 1 h, vs control
Description: Transfected Calu-6 cells were grown on sterile chamber slides until 60-70% confluent. Cells were then treated with paclitaxel and vincristine for 1 h at 10 nM. Cells were fixed in methanol and processed for staining as previously described (Don et al. (2004) supra) with minor modifications. Fixed cells were stained with α-tubulin (1:400 in 5% FCS/PBS, Sigma) for 30 min followed by Cy2 anti-mouse fluorescent tagged antibody (1:1,000 in 5% FCS/PBS, GE Healthcare). Slides were mounted on a coverslip using DAPI II Counterstain (Vysis Inc., Downers Grove, Ill.). Slides were viewed using a Zeiss Axioplan 2 Immunofluorescence Microscope (Mannheim, Germany) with Image-Pro® Plus 4.1 software (Media Cybernetics, L.P., Silver Spring, Md.).
To assess the effects of βIII downregulation on microtubule organization, immunofluorescence staining was performed on transfected Calu-6 cells as follows. Briefly, siRNA transfected cells were plated in glass chamber slides and allowed to reach 70% confluence. Cells were then treated with 10 nM of paclitaxel or vincristine for 1 hour. Drug was then removed by washing cells with PBS and blocked in 10% FCS/PBS. For dual staining, cells were first labelled with an antibody to class III β-tubulin which was exposed to cells incubated at 37° C. for 30 minutes in a humidified chamber. Following washes in 0.1% Tween 20/PBS at room temperature, the slides were incubated with Cy3 anti-mouse fluorescent-tagged antibody (GE Healthcare) for 40 minutes in a humidified chamber in the dark at room temperature. Following incubation, the slides were washed again in 0.1% Tween 20/PBS. This was then followed by staining with α-tubulin and Cy2 anti-mouse fluorescent tagged antibody (GE Healthcare). Slides were mounted on a coverslip using DAPI II Counterstain (Vysis Inc., Downers Grove, Ill.). Immunofluorescence microscopy was performed and images were captured using a Sensicam Charged Coupled Device camera (PCO Imaging, Kelheim, Bavaria, Germany) and the Image-Pro® Plus 4.1 software (Media Cybernetics, L.P., Silver Spring, Md.).

[4] = test system: H460 cells; assay: Cell cycle analysis by flow cytometry (propidium iodide); assay type: cell-based, Human; details: 24 h
Description: The distribution of DNA content in βII or βIVb tubulin siRNA-transfected H460 cells was determined by flow cytometry. After 72 h transfection, transfected cells were exposed to vincristine at 5 nM or 40 nM concentrations for 24 h. On the day of analysis, both adherent and floating cells were harvested, washed with PBS and then stained with a solution containing 0.4% Triton® X-100 (Sigma), 50 μg/ml propidium iodide (Sigma), and 2 μg/ml DNase-free RNase (Roche, Indianapolis, Ind.) in the dark for 15 min at 37′C. DNA content was measured by a FACSCalibur flow cytometer (Becton Dickinson, San Diego, Calif.). The flow rate was <200 nuclei per second and 10,000 cells from each sample were analysed. Measurements were performed under the same instrumental settings. The CellQuest® program was used to quantitate the distribution of cells in each cell cycle phase: sub-G1 (apoptotic cells), G1, S and G2/M.
To determine whether βIII-tubulin silencing affects the cell cycle profiles, cell cycle analysis using flow cytometry was performed. Cell cycle analysis was determined by transfecting H460 cells with siRNA for 72 h and harvesting (adherent and suspension) cells 24 h after drug treatment. DNA content was stained for 15 min at 37° C. with a solution containing 0.4% Triton® X-100 (Sigma-Aldrich), 50 μg/ml propidium iodide (Sigma-Aldrich), and 2 μg/ml DNAse-free RNAse (Roche, Indianapolis, Ind.). The cells were then analyzed for cell cycle perturbation using a FACSCalibur (Becton-Dickinson, Franklin Lakes, N.J.). The CellQuest® program was used to quantitate the distribution of cells in each cell cycle phase: sub-G1(apoptotic cells), G1, S and G2/M.

[5] = test system: Calu-6 cells; assay: Drug-treated clonogenic assay on siRNA-transfected cells; assay type: cell-based, Human
Description: as §1, §2, §3, §4

[6] = class II β-tubulin siRNA knockdown vs controls
[7] = class IVb β-tubulin siRNA knockdown vs controls
[8] = βIII-tubulin siRNA silencing vs controls
[9] = NCI-H460, Table 1A, control siRNA-transfected H460 cells, read-out: ID50 (the source's name)
[10] = NCI-H460, Table 1A, mock-transfected H460 cells, read-out: ID50 (the source's name)
[11] = NCI-H460, Table 1A, βII siRNA-transfected H460 cells, read-out: ID50 (the source's name)
[12] = NCI-H460, Table 1B, control siRNA-transfected H460 cells, read-out: ID50 (the source's name)
[13] = NCI-H460, Table 1B, mock-transfected H460 cells, read-out: ID50 (the source's name)
[14] = NCI-H460, Table 1B, βIVb siRNA-transfected H460 cells, read-out: ID50 (the source's name)

| Structure (SMILES) | change in drug sensitivity (clonogenic survival) [1, 6] | change in drug sensitivity (clonogenic survival) [1, 8] | IC50 [1, 9] | IC50 [1, 10] | IC50 [1, 11] | IC50 [1, 12] | IC50 [1, 13] | IC50 [1, 14] | also measured |
| --- | --- | --- | --- | --- | --- | --- | --- | --- | --- |
| COc1cc2c(cc1O)CC[C@@H]1[C@@H]2CC[C@]2(C)[C@@H](O)CC[C@@H]12 [2ME2, 2-methoxyestradiol] | significantly increased sensitivity |  |  |  |  |  |  |  |  |
| CC[C@]1(O)C[C@H]2CN(CCc3c([nH]c4ccccc34)[C@@](C(=O)OC)(c3cc4c(cc3OC)N(C=O)[C@H]3[C@@](O)(C(=O)OC)[C@H](OC(C)=O)[C@]5(CC)C=CCN6CC[C@]43[C@@H]65)C2)C1 [VCR, vincristine] | significantly sensitized | significant increase in sensitivity |  |  |  |  |  |  | cross-resistance [2]: cross-resistance; microtubule morphology ([3]; βII siRNA-transfected Calu-6, 10 nM drug): dramatic disruption of the microtubule cytoskeleton; microtubule morphology ([3]; βIII siRNA-transfected Calu-6, 10 nM drug): extensive disruption of the microtubule cytoskeleton; microtubule morphology ([3]; βIVb siRNA-transfected Calu-6, 10 nM drug): dramatic disruption of the microtubule cytoskeleton; cell cycle profile ([4]; βII siRNA transfectants, 5 nM): increase in the G2/M and sub-G1 populations; cell cycle profile ([4]; βII siRNA transfectants, 40 nM): greater G2/M accumulation; cell cycle profile ([4]; βIVb siRNA transfectants, 5 nM): increase in the G2/M and sub-G1 populations; cell cycle profile ([4]; βIVb siRNA transfectants, 40 nM): failed to undergo G2/M arrest; change in drug sensitivity (clonogenic survival) [5, 6]: significantly sensitized; change in drug sensitivity (clonogenic survival) [5, 7]: hypersensitive; IC50 ([1]; NCI-H460, Table 2, 27-mer βIII siRNA Sequence-8 H460 cells, read-out: ID50 ± SEM): 1.68 ± 0.116 nM; IC50 ([1]; NCI-H460, Table 2, 27-mer βIII siRNA Sequence-11 H460 cells, read-out: ID50 ± SEM): 2.95 ± 0.175 nM; IC50 ([1]; NCI-H460, Table 2, Ctrl-1 (27-mer control siRNA) H460 cells, read-out: ID50 ± SEM): 4.25 ± 0.18 nM; IC50 ([1]; NCI-H460, Table 2, mock-transfected H460 cells, read-out: ID50 ± SEM): 3.99 ± 0.158 nM; RS (relative sensitivity) ([1]; 27-mer βIII siRNA Sequence-8 H460 cells): (2.37, <0.0001***); RS (relative sensitivity) ([1]; 27-mer βIII siRNA Sequence-11 H460 cells): (1.34, 0.001**); RS (relative sensitivity) ([1]; Ctrl-1 H460 cells): (0.94, NS); change in drug sensitivity (clonogenic survival) [1, 7]: precipitous drop in surviving colonies |
| COc1cc([C@@H]2c3cc4c(cc3[C@@H](O[C@@H]3O[C@@H]5CO[C@@H](C)O[C@H]5[C@H](O)[C@H]3O)[C@H]3COC(=O)[C@H]23)OCO4)cc(OC)c1O [VP-16, Etoposide] |  | increased sensitivity |  |  |  |  |  |  |  |
| CC[C@]1(O)C[C@@H]2CN(CCc3c([nH]c4ccccc34)[C@@](C(=O)OC)(c3cc4c(cc3OC)N(C)[C@H]3[C@@](O)(C(=O)OC)[C@H](OC(C)=O)[C@]5(CC)C=CCN6CC[C@]43[C@@H]65)C2)C1 [Vinblastine, vinblastine] |  |  | 0.749 nM | 0.658 nM | 0.437 nM | 0.615 nM | 0.674 nM | 0.173 nM |  |
| CC[C@]12C=CCN3CC[C@@]4(c5cc([C@@]6(C(=O)OC)C[C@@H]7C[C@@H](C(C)(F)F)CN(Cc8c6[nH]c6ccccc86)C7)c(OC)cc5N(C)[C@H]4[C@@](O)(C(=O)OC)[C@@H]1OC(C)=O)[C@@H]32 [Vinflunine, vinflunine] |  |  | 29.9 nM | 31 nM | 19 nM | 30.5 nM | 31.7 nM | 19.2 nM |  |
| CCC1=C[C@@H]2CN(C1)Cc1c([nH]c3ccccc13)[C@@](C(=O)OC)(c1cc3c(cc1OC)N(C)[C@H]1[C@@](O)(C(=O)OC)[C@H](OC(C)=O)[C@]4(CC)C=CCN5CC[C@]31[C@@H]54)C2 [Vinorelbine, vinorelbine] |  | enhanced sensitivity | 5.78 nM | 6.34 nM | 4.04 nM | 6.52 nM | 6.95 nM | 5.43 nM | change in drug sensitivity (clonogenic survival) [5, 8]: enhanced sensitivity |
| COc1cc2c(c(OC)c1OC)-c1ccc(OC)c(=O)cc1[C@@H](NC(C)=O)CC2 [colchicine] | significantly increased sensitivity |  |  |  |  |  |  |  | cross-resistance of the 2ME2-resistant cells [2]: not cross resistant; cross-resistance [2]: cross-resistance |
| COc1cccc2c1C(=O)c1c(O)c3c(c(O)c1C2=O)C[C@@](O)(C(=O)CO)C[C@@H]3O[C@H]1C[C@H](N)[C@H](O)[C@H](C)O1 [doxorubicin, doxorubicin hydrochloride] |  | increased sensitivity |  |  |  |  |  |  |  |
| C/C(=C\c1csc(C)n1)[C@@H]1C[C@@H]2O[C@]2(C)CCC[C@H](C)[C@H](O)[C@@H](C)C(=O)C(C)(C)[C@@H](O)CC(=O)O1 [epothilone B] | no significant change in drug sensitivity | increased the sensitivity |  |  |  |  |  |  | cross-resistance of the 2ME2-resistant cells [2]: hypersensitive; change in drug sensitivity (clonogenic survival) [5, 8]: increased the sensitivity; change in drug sensitivity (clonogenic survival) [1, 7]: significantly more resistant |
